Results: patent US10738028B2, “Spiro three-membered ring, spiro five-membered ring peptide deformylase inhibitor and use thereof in antibacteria and anti-tumor” (priority 2016, dated 2020)
≈ marks a conversion by molar mass, not a printed value. Like-named read-outs stand apart in the source and are kept apart here.

Legend:
Assay type in all cases: cell-based
[1] = tested on: methicillin-sensitive Staphylococcus aureus (MSSA); experiment: MIC, two-fold agar dilution (CLSI), clinical isolates
Outline: (§1)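 Test samples were assayed by the CLSI-recommended two-fold agar dilution method, and the minimum inhibitory concentration against each tested strain was determined.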

[2] = tested on: Streptococcus pneoumoniae (SPN); experiment: as above
Outline: as §1

[3] = tested on: Enterococcus faecium (EFM); experiment: as above
Outline: as §1

[4] = tested on: Moraxella catarrhalis (BCA); experiment: as above; conditions: for Anti-bacterial activity (MIC), strain BCA 14-10: clinical isolate BCA 14-10
Outline: as §1

[5] = tested on: Escherichia coli (including ESBLs, non-ESBLs); experiment: as above
Outline: as §1

[6] = tested on: Enterococcus faecalis (EFA); experiment: as above
Outline: as §1

[7] = tested on: methicillin-sensitive Staphylococcus epidermidis (MSSE); experiment: as above
Outline: as §1

[8] = tested on: methicillin-resistant Staphylococcus aureus (MRSA); experiment: as above
Outline: as §1

[9] = tested on: methicillin-resistant Staphylococcus epidermidis (MRSE); experiment: as above
Outline: as §1

[10] = tested on: HCT-116 colorectal cancer cell line; experiment: CCK-8 proliferation inhibition; conditions: concentration of 30 μM, 72 hours, CCK-8; for inhibition at 30 µM: Homo sapiens, HCT-116, 72 h
Outline: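 HCT-116 cells, seeded at 2000 cells/well in McCoy's 5A with 10% newborn bovine serum, were cultured overnight at 37° C., 5% CO2, then exposed to compound dilutions in medium for 72 hours. Viability was read with 1:10 diluted CCK-8; controls received 1‰ DMSO.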

[11] = tested on: MGC-803 gastric cancer cell line; experiment: CCK-8 proliferation inhibition; conditions: Homo sapiens, MGC-803, 72 h, concentration of 30 μM
Outline: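 Cells were seeded at 2000 cells/well and cultured overnight at 37° C, 5% CO2, then exposed for 72 hours to compounds diluted from DMSO stocks. Controls received 1‰ DMSO. CCK-8 (1:10 diluted) replaced the medium. MGC-803 and Jurkat were grown in 1640, PC3 in F12, and MCF-7 in DMEM high glucose, each with 10% newborn bovine serum.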

[12] = tested on: A549 lung cancer cell line; experiment: CCK-8 proliferation inhibition; conditions: Homo sapiens, A549, 72 h, concentration of 30 μM
Outline: (§2)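 Plating at 2000 cells/well, then incubation overnight at 37° C. Next, a range of compound concentrations for 72 hours (control 1‰ DMSO). Finally, medium decanted and CCK-8 diluted 1:10 added.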

[13] = tested on: BEL-7402 liver cancer cell line; experiment: CCK-8 proliferation inhibition; conditions: concentration of 30 μM; for Inhibition of proliferation, Liver cancer BEL-7402: 72 hours, 30 µM
Outline: as §2

[14] = read-out: HCT116 inhibition rate/%

SMILES: COC(=O)c1sccc1NC(=O)[C@@H]1CC2(CC2)CN1C(=O)[C@H](CC1CCCC1)CN(O)C=O [Example 34]
- MIC (anti-bacterial activity) ([1]; strain MSSA 15-3): 1 µg/mL (≈ 2.09 µM)
- MIC (anti-bacterial activity) ([1]; strain MSSA 15-4): 1 µg/mL (≈ 2.09 µM)
- MIC (anti-bacterial activity) ([1]; strain MSSA 15-5): 1 µg/mL (≈ 2.09 µM)
- MIC (anti-bacterial activity) ([1]; strain MSSA 15-6): 1 µg/mL (≈ 2.09 µM)
- MIC (anti-bacterial activity) ([2]; strain SPN 16-2): 0.125 µg/mL (≈ 0.262 µM)
- MIC (anti-bacterial activity) ([2]; strain SPN 16-4): 4 µg/mL (≈ 8.38 µM)
- MIC (anti-bacterial activity) ([3]; strain EFM 15-1): 2 µg/mL (≈ 4.19 µM)
- MIC (anti-bacterial activity) ([3]; strain EFM 15-2): 2 µg/mL (≈ 4.19 µM)
- MIC (anti-bacterial activity) ([3]; strain EFM 15-3): 0.25 µg/mL (≈ 0.523 µM)
- MIC (anti-bacterial activity) ([3]; strain EFM 15-4): 4 µg/mL (≈ 8.38 µM)
- MIC (anti-bacterial activity) ([3]; strain EFM 15-5): 4 µg/mL (≈ 8.38 µM)
- MIC (anti-bacterial activity) ([3]; strain EFM 15-6): 4 µg/mL (≈ 8.38 µM)
- Anti-bacterial activity (MIC), strain BCA 14-10 [4]: 2 µg/mL
- MIC (anti-bacterial activity) ([4]; strain BCA 14-1): 4 µg/mL (≈ 8.38 µM)
- MIC (anti-bacterial activity) ([4]; strain BCA 14-4): 4 µg/mL (≈ 8.38 µM)
- MIC (anti-bacterial activity) ([4]; strain BCA 14-5): 1 µg/mL (≈ 2.09 µM)
- MIC (anti-bacterial activity) ([4]; strain BCA 14-6): 4 µg/mL (≈ 8.38 µM)
- MIC (anti-bacterial activity) ([4]; strain BCA 14-7): 2 µg/mL (≈ 4.19 µM)
- MIC (anti-bacterial activity) ([4]; strain BCA 14-8): 2 µg/mL (≈ 4.19 µM)
- MIC (anti-bacterial activity) ([5]; strain ECO+ 15-1): 128 µg/mL (≈ 268 µM)
- MIC (anti-bacterial activity) ([5]; strain ECO+ 15-2): 128 µg/mL (≈ 268 µM)
- MIC (anti-bacterial activity) ([5]; strain ECO+ 15-3): 128 µg/mL (≈ 268 µM)
- MIC (anti-bacterial activity) ([5]; strain ECO+ 15-4): 128 µg/mL (≈ 268 µM)
- MIC (anti-bacterial activity) ([5]; strain ECO− 15-1): 128 µg/mL (≈ 268 µM)
- MIC (anti-bacterial activity) ([5]; strain ECO− 15-2): 128 µg/mL (≈ 268 µM)
- MIC (anti-bacterial activity) ([5]; strain ECO− 15-3): 128 µg/mL (≈ 268 µM)
- MIC (anti-bacterial activity) ([5]; strain ECO− 15-4): 128 µg/mL (≈ 268 µM)
- MIC (anti-bacterial activity) ([6]; strain EFA 15-1): 4 µg/mL (≈ 8.38 µM)
- MIC (anti-bacterial activity) ([6]; strain EFA 15-2): 4 µg/mL (≈ 8.38 µM)
- MIC (anti-bacterial activity) ([6]; strain EFA 15-3): 2 µg/mL (≈ 4.19 µM)
- MIC (anti-bacterial activity) ([6]; strain EFA 15-4): 4 µg/mL (≈ 8.38 µM)
- MIC (anti-bacterial activity) ([6]; strain EFA 15-5): 4 µg/mL (≈ 8.38 µM)
- MIC (anti-bacterial activity) ([6]; strain EFA 15-6): 4 µg/mL (≈ 8.38 µM)
- MIC (anti-bacterial activity) ([6]; strain EFA 15-9): 4 µg/mL (≈ 8.38 µM)
- MIC (anti-bacterial activity) ([7]; strain MSSE 15-3): 4 µg/mL (≈ 8.38 µM)
- MIC (anti-bacterial activity) ([7]; strain MSSE 15-4): 4 µg/mL (≈ 8.38 µM)
- MIC (anti-bacterial activity) ([7]; strain MSSE 15-5): 4 µg/mL (≈ 8.38 µM)
- MIC (anti-bacterial activity) ([7]; strain MSSE 15-6): 1 µg/mL (≈ 2.09 µM)
- MIC (anti-bacterial activity) ([8]; strain MRSA 15-1): 1 µg/mL (≈ 2.09 µM)
- MIC (anti-bacterial activity) ([8]; strain MRSA 15-2): 1 µg/mL (≈ 2.09 µM)
- MIC (anti-bacterial activity) ([8]; strain MRSA 15-3): 1 µg/mL (≈ 2.09 µM)
- MIC (anti-bacterial activity) ([8]; strain MRSA 15-4): 0.5 µg/mL (≈ 1.05 µM)
- MIC (anti-bacterial activity) ([9]; strain MRSE 15-1): 0.25 µg/mL (≈ 0.523 µM)
- MIC (anti-bacterial activity) ([9]; strain MRSE 15-2): 4 µg/mL (≈ 8.38 µM)
- MIC (anti-bacterial activity) ([9]; strain MRSE 15-3): 4 µg/mL (≈ 8.38 µM)
- MIC (anti-bacterial activity) ([9]; strain MRSE 15-7): 4 µg/mL (≈ 8.38 µM)
- inhibition at 30 µM ([10]; Table 5, read-out: Inhibition of proliferation, Colorectal cancer HCT116): ≥ 30%
- inhibition at 30 µM [10, 14]: 36%
- inhibition at 30 µM [11]: 26%
- inhibition at 30 µM [12]: 35%
- inhibition at 30 µM ([13]; Homo sapiens, Bel-7402, 72 h): > 50%
- Inhibition of proliferation, Liver cancer BEL-7402 [13]: 63%

SMILES: O=CN(O)C[C@@H](CC1CCCC1)C(=O)N1CC2(CC2)C[C@H]1C(=O)Nc1ncco1 [Example 36]
- MIC (anti-bacterial activity) ([1]; strain MSSA 15-3): 8 µg/mL (≈ 19.8 µM)
- MIC (anti-bacterial activity) ([1]; strain MSSA 15-4): 8 µg/mL (≈ 19.8 µM)
- MIC (anti-bacterial activity) ([1]; strain MSSA 15-5): 8 µg/mL (≈ 19.8 µM)
- MIC (anti-bacterial activity) ([1]; strain MSSA 15-6): 4 µg/mL (≈ 9.89 µM)
- MIC (anti-bacterial activity) ([2]; strain SPN 16-2): 2 µg/mL (≈ 4.94 µM)
- MIC (anti-bacterial activity) ([2]; strain SPN 16-4): 16 µg/mL (≈ 39.6 µM)
- MIC (anti-bacterial activity) ([3]; strain EFM 15-1): 16 µg/mL (≈ 39.6 µM)
- MIC (anti-bacterial activity) ([3]; strain EFM 15-2): 8 µg/mL (≈ 19.8 µM)
- MIC (anti-bacterial activity) ([3]; strain EFM 15-3): 2 µg/mL (≈ 4.94 µM)
- MIC (anti-bacterial activity) ([3]; strain EFM 15-4): 8 µg/mL (≈ 19.8 µM)
- MIC (anti-bacterial activity) ([3]; strain EFM 15-5): 8 µg/mL (≈ 19.8 µM)
- MIC (anti-bacterial activity) ([3]; strain EFM 15-6): 8 µg/mL (≈ 19.8 µM)
- Anti-bacterial activity (MIC), strain BCA 14-10 [4]: 2 µg/mL
- MIC (anti-bacterial activity) ([4]; strain BCA 14-1): 16 µg/mL (≈ 39.6 µM)
- MIC (anti-bacterial activity) ([4]; strain BCA 14-4): 16 µg/mL (≈ 39.6 µM)
- MIC (anti-bacterial activity) ([4]; strain BCA 14-5): 4 µg/mL (≈ 9.89 µM)
- MIC (anti-bacterial activity) ([4]; strain BCA 14-6): 16 µg/mL (≈ 39.6 µM)
- MIC (anti-bacterial activity) ([4]; strain BCA 14-7): 4 µg/mL (≈ 9.89 µM)
- MIC (anti-bacterial activity) ([4]; strain BCA 14-8): 8 µg/mL (≈ 19.8 µM)
- MIC (anti-bacterial activity) ([5]; strain ECO+ 15-1): 8 µg/mL (≈ 19.8 µM)
- MIC (anti-bacterial activity) ([5]; strain ECO+ 15-2): > 32 µg/mL
- MIC (anti-bacterial activity) ([5]; strain ECO+ 15-3): > 32 µg/mL
- MIC (anti-bacterial activity) ([5]; strain ECO+ 15-4): > 32 µg/mL
- MIC (anti-bacterial activity) ([5]; strain ECO− 15-1): > 32 µg/mL
- MIC (anti-bacterial activity) ([5]; strain ECO− 15-2): 32 µg/mL (≈ 79.1 µM)
- MIC (anti-bacterial activity) ([5]; strain ECO− 15-3): 32 µg/mL (≈ 79.1 µM)
- MIC (anti-bacterial activity) ([5]; strain ECO− 15-4): 32 µg/mL (≈ 79.1 µM)
- MIC (anti-bacterial activity) ([6]; strain EFA 15-1): 16 µg/mL (≈ 39.6 µM)
- MIC (anti-bacterial activity) ([6]; strain EFA 15-2): 16 µg/mL (≈ 39.6 µM)
- MIC (anti-bacterial activity) ([6]; strain EFA 15-3): 16 µg/mL (≈ 39.6 µM)
- MIC (anti-bacterial activity) ([6]; strain EFA 15-4): 16 µg/mL (≈ 39.6 µM)
- MIC (anti-bacterial activity) ([6]; strain EFA 15-5): 16 µg/mL (≈ 39.6 µM)
- MIC (anti-bacterial activity) ([6]; strain EFA 15-6): 16 µg/mL (≈ 39.6 µM)
- MIC (anti-bacterial activity) ([6]; strain EFA 15-9): 16 µg/mL (≈ 39.6 µM)
- MIC (anti-bacterial activity) ([7]; strain MSSE 15-3): 8 µg/mL (≈ 19.8 µM)
- MIC (anti-bacterial activity) ([7]; strain MSSE 15-4): 8 µg/mL (≈ 19.8 µM)
- MIC (anti-bacterial activity) ([7]; strain MSSE 15-5): 8 µg/mL (≈ 19.8 µM)
- MIC (anti-bacterial activity) ([7]; strain MSSE 15-6): 8 µg/mL (≈ 19.8 µM)
- MIC (anti-bacterial activity) ([8]; strain MRSA 15-1): 4 µg/mL (≈ 9.89 µM)
- MIC (anti-bacterial activity) ([8]; strain MRSA 15-2): 8 µg/mL (≈ 19.8 µM)
- MIC (anti-bacterial activity) ([8]; strain MRSA 15-3): 4 µg/mL (≈ 9.89 µM)
- MIC (anti-bacterial activity) ([8]; strain MRSA 15-4): 8 µg/mL (≈ 19.8 µM)
- MIC (anti-bacterial activity) ([9]; strain MRSE 15-1): 4 µg/mL (≈ 9.89 µM)
- MIC (anti-bacterial activity) ([9]; strain MRSE 15-2): 8 µg/mL (≈ 19.8 µM)
- MIC (anti-bacterial activity) ([9]; strain MRSE 15-3): 8 µg/mL (≈ 19.8 µM)
- MIC (anti-bacterial activity) ([9]; strain MRSE 15-7): 8 µg/mL (≈ 19.8 µM)
- inhibition at 30 µM [10, 14]: > 50%
- HCT116 inhibition rate/% ([10]; 30 µM): 60%
- inhibition at 30 µM [11]: 46%
- inhibition at 30 µM [12]: 26%
- Inhibition of proliferation, Liver cancer BEL-7402 [13]: 73%
